Key:
Assay type in all cases: in vivo
Myzus persicae [1] = assay: Myzus persicae oral test; settings: 120 h, application rate 4 ppm, after 5 days, read-out: efficacy
Procedure: [table] To produce a suitable active ingredient formulation, 1 part by weight of active ingredient is dissolved with the stated parts by weight of solvent and made up to the desired concentration with water. 50 μl of the active ingredient formulation are transferred into microtitre plates and made up to a final volume of 200 μl with 150 μl of IPL41 insect medium (33%+15% sugar). Subsequently, the plates are sealed with parafilm, which a mixed population of green peach aphids (Myzus persicae) within a second microtitre plate is able to puncture and imbibe the solution. After 5 days, the efficacy in % is determined. 100% means that all the aphids have been killed; 0% means that no aphids have been killed.

Lucilia cuprina = Lucilia cuprina test; settings: 48 h, application rate 100 ppm, L1 larvae, kill after 2 days, read-out: efficacy
Procedure: Solvent: dimethyl sulfoxide To produce a suitable active ingredient formulation, 10 mg of active ingredient are mixed with 0.5 ml of dimethyl sulfoxide, and the concentrate is diluted with water to the desired concentration. About 20 L1 larvae of the Australian sheep blowfly (Lucilia cuprina) are transferred into a test vessel containing minced horsemeat and the active ingredient formulation of the desired concentration. After 2 days, the kill in % is determined. 100% means that all the larvae have been killed; 0% means that no larvae have been killed.

Myzus persicae [2] = assay: Myzus persicae spray test; settings: foliar, 120 h, application rate 100 g/ha, Chinese cabbage leaf discs, after 5 days, read-out: efficacy
Procedure: (§1) [table] To produce a suitable active ingredient formulation, 1 part by weight of active ingredient is dissolved with the specified parts by weight of solvent and made up to the desired concentration with water containing an emulsifier concentration of 1000 ppm. To produce further test concentrations, the formulation is diluted with emulsifier-containing water. Discs of Chinese cabbage leaves (Brassica pekinensis) infested by all stages of the green peach aphid (Myzus persicae) are sprayed with an active ingredient formulation of the desired concentration. After 5 days, the efficacy in % is determined. 100% means that all the aphids have been killed; 0% means that no aphids have been killed.

Spodoptera frugiperda = Spodoptera frugiperda spray test; settings: foliar, 168 h, application rate 100 g/ha, maize leaf discs, caterpillars, after 7 days, read-out: efficacy
Procedure: [table] To produce a suitable active ingredient formulation, 1 part by weight of active ingredient is dissolved with the specified parts by weight of solvent and made up to the desired concentration with water containing an emulsifier concentration of 1000 ppm. To produce further test concentrations, the formulation is diluted with emulsifier-containing water. Leaf discs of maize (Zea mays) are sprayed with an active ingredient formulation of the desired concentration and, after drying, populated with caterpillars of the fall armyworm (Spodoptera frugiperda). After 7 days, the efficacy in % is determined. 100% means that all the caterpillars have been killed; 0% means that no caterpillar has been killed.

Ctenocephalides felis = Ctenocephalides felis oral test; settings: 48 h, application rate 100 ppm in citrated cattle blood, kill after 2 days, read-out: efficacy
Procedure: Solvent: dimethyl sulfoxide To produce a suitable active ingredient formulation, 10 mg of active ingredient are mixed with 0.5 ml of dimethyl sulfoxide. Dilution with citrated cattle blood gives the desired concentration. About 20 unfed adult cat fleas (Ctenocephalides felis) are placed into a chamber which is closed at the top and bottom with gauze. A metal cylinder whose bottom end is closed with parafilm is placed onto the chamber. The cylinder contains the blood/active ingredient formulation, which can be imbibed by the fleas through the parafilm membrane. After 2 days, the kill in % is determined. 100% means that all of the fleas have been killed; 0% means that none of the fleas have been killed.

Phaedon cochleariae = Phaedon cochleariae spray test; settings: 168 h, application rate 100 g/ha, larvae, after 7 days, read-out: efficacy
Procedure: as §1, with “pekinensis)” for “pekinensis) infested by all stages of the green peach aphid (Myzus persicae)”, “concentration and, after drying, populated with larvae of the mustard beetle (Phaedon cochleariae).” for “concentration.”, “7” for “5”, “beetle larvae” for “aphids”

Tetranychus urticae = Tetranychus urticae spray test, OP-resistant; settings: foliar, 144 h, application rate 100 g/ha, bean leaf discs, after 6 days, read-out: efficacy
Procedure: [table] To produce a suitable active ingredient formulation, 1 part by weight of active ingredient is dissolved with the specified parts by weight of solvent and made up to the desired concentration with water containing an emulsifier concentration of 1000 ppm. To produce further test concentrations, the formulation is diluted with emulsifier-containing water. Discs of bean leaves (Phaseolus vulgaris) infested with all stages of the greenhouse red spider mite (Tetranychus urticae) are sprayed with an active ingredient formulation of the desired concentration. After 6 days, the efficacy in % is determined. 100% means that all the spider mites have been killed; 0% means that no spider mites have been killed.

SMILES | pest or weed control at 4 ppm (Myzus persicae [1]) [%] | pest or weed control at 100 ppm (Lucilia cuprina) [%] | pest or weed control at 100 g/ha (Myzus persicae [2]) [%] | pest or weed control at 100 g/ha (Spodoptera frugiperda) [%] | pest or weed control at 100 ppm (Ctenocephalides felis) [%] | pest or weed control at 100 g/ha (Phaedon cochleariae) [%] | pest or weed control at 100 g/ha (Tetranychus urticae) [%]
CCn1c(Br)nc(-c2nc3cc(C(F)(F)F)ncc3n2C)c1S(=O)(=O)CC [Example I-001] | 100 | 100 |  |  |  |  | 
C=C(C)c1nc(-c2nc3cc(C(F)(F)F)ncc3n2C)c(S(=O)(=O)CC)n1C [Example I-008] | 100 | 100 | 90 |  |  |  | 
CCS(=O)(=O)c1c(-c2nc3cc(C(F)(F)F)ncc3n2C)nc(-c2ccccc2)n1C(C)C [Example I-012] | 100 | 100 | 90 |  |  |  | 
CCS(=O)(=O)c1c(-c2nc3cc(C(F)(F)F)ncc3n2C)nc(-c2ccncc2)n1C [Example I-021] | 100 | 80 | 100 |  |  |  | 
CCS(=O)(=O)c1c(-c2nc3cc(C(F)(F)F)ncc3n2C)nc(Cl)n1C(C)C [Example I-025] | 100 |  |  | 100 | 80 |  | 
CCS(=O)(=O)c1c(-c2nc3cc(C(F)(F)F)ncc3n2C)nc(-n2cc(Cl)cn2)n1C [Example I-027, 2-[2-(4-chloro-1H-pyrazol-1-yl)-5-(ethylsulfonyl)-1-methyl-1H-imidazol-4-yl]-3-methyl-6-(trifluoromethyl)-3H-imidazo[4,5-c]pyridine] | 100 |  | 90 | 100 |  | 100 | 
CCS(=O)(=O)c1c(-c2nc3cc(C(F)(F)F)ncc3n2C)ncn1C [Example I-029, 2-[5-(Ethylsulfonyl)-1-methyl-1H-imidazol-4-yl]-3-methyl-6-(trifluoromethyl)-3H-imidazo[4,5-c]pyridine] | 100 | 95 | 70 |  | 95 | 100 | 
CCS(=O)(=O)c1c(-c2nc3cc(C(F)(F)F)ncc3n2C)nc(-c2ccnnc2)n1C [Example I-030] | 100 | 100 | 100 |  |  |  | 
CCS(=O)(=O)c1c(-c2nc3cc(C(F)(F)F)ncc3n2C)nc(C(N)=O)n1C [Example I-038, 5-(Ethylsulfonyl)-1-methyl-4-[3-methyl-6-(trifluoromethyl)-3H-imidazo[4,5-c]pyridin-2-yl]-1H-imidazole-2-carboxamide] | 100 |  | 90 |  | 100 | 100 | 
CCS(=O)(=O)c1c(-c2nc3cc(C(F)(F)F)ncc3n2C)nc(C(=O)NC)n1C [Example I-039] | 100 |  | 100 |  | 100 |  | 
CCS(=O)(=O)c1c(-c2nc3cc(C(F)(F)F)ncc3n2C)nc(C(=O)N(C)C)n1C [Example I-040] | 100 | 100 | 100 |  | 90 |  | 
CCS(=O)(=O)c1c(-c2nc3cc(C(F)(F)F)ncc3n2C)nc(-c2ccsc2)n1C [Example I-043] | 100 | 100 | 90 |  |  |  | 
CCS(=O)(=O)c1c(-c2nc3cc(C(F)(F)F)ncc3n2C)nc(C(N)=S)n1C [Example I-046, 5-(Ethylsulfonyl)-1-methyl-4-[3-methyl-6-(trifluoromethyl)-3H-imidazo[4,5-c]pyridin-2-yl]-1H-imidazole-2-carbothioamide] | 100 | 95 |  |  |  | 100 | 
CCS(=O)(=O)c1c(-c2nc3cc(C(F)(F)F)ncc3n2C)nc(-c2c(C)nn(C)c2C)n1C [Example I-050] | 90 |  | 90 |  |  |  | 90
CCS(=O)(=O)c1c(-c2nc3cc(C(F)(F)F)ncc3n2C)nc(-c2ccc(C#N)n2C)n1C [Example I-054] | 90 |  |  |  |  |  | 100
CCS(=O)(=O)c1c(-c2nc3cc(C(F)(F)F)ncc3n2C)nc(-c2ccc(Cl)s2)n1C [Example I-057] | 100 |  | 90 | 67 |  | 100 | 
CCS(=O)(=O)c1c(-c2nc3cc(C(F)(F)F)ncc3n2C)nc(-c2ccn(C)n2)n1C [Example I-060] | 100 |  | 100 | 83 |  | 100 | 
CCS(=O)(=O)c1c(-c2nc3cc(C(F)(F)F)nnc3n2C)nc(-c2ccc(Cl)cc2)n1C [Example I-063] | 100 |  | 100 | 100 |  | 100 | 
CCS(=O)(=O)c1c(-c2nc3cc(C(F)(F)F)ncc3n2C)nc(-c2ccc(C3(C#N)CC3)cc2)n1C [Example I-069] | 100 |  | 90 | 100 |  | 100 | 
CCS(=O)(=O)c1c(-c2nc3cc(C(F)(F)F)ncc3n2C)nc(C2=CCC(C)CC2)n1C (stereo not shown) [Example I-074] |  |  | 90 |  |  |  | 90
CCS(=O)(=O)c1c(-c2nc3cc(C(F)(F)F)ncc3n2C)nc(-c2cccc(C(C)(C)C#N)c2)n1C [Example I-075] | 100 |  | 90 |  |  |  | 90
CCS(=O)(=O)c1c(-c2nc3cc(C(F)(F)F)ncc3n2C)nc(C(C)C)n1C [Example I-086] | 100 |  | 90 |  |  |  | 90
CCS(=O)(=O)c1c(-n2cc3ncc(C(F)(F)F)cc3n2)nc(-c2ccccc2)n1C [Example I-096] | 90 |  | 90 | 83 |  | 100 | 
CCS(=O)(=O)c1c(-n2cc3cnc(C(F)(F)F)cc3n2)nc(-c2ccc(C(F)(F)F)cc2)n1C [Example I-097] | 100 |  |  | 100 |  | 100 | 
CCS(=O)(=O)c1c(-n2cc3ncc(C(F)(F)F)cc3n2)nc(-c2ccc(C(F)(F)F)cc2)n1C [Example I-098, 2-{5-(Ethylsulfonyl)-1-methyl-2-[4-(trifluoromethyl)phenyl]-1H-imidazol-4-yl}-6-(trifluoromethyl)-2H-pyrazolo[4,3-b]pyridine] | 100 |  |  | 100 |  | 100 | 
